What was measured:
PP2A = target: T1, PP2A (Homo sapiens, UniProt P67775); test: PP2A phosphatase assay; assay type: cell-based; conditions: CD34+/CD38− CML cells; FTY720 at concentration non-toxic for normal CD34+ progenitors
T1 construct: PP2Ac assays from whole cell lysates; endogenous in cells; host or cells: CD34+/CD38- and CD34+/CD38+ primary CML and normal bone-marrow cells; immunoprecipitated with Millipore PP2Ac antibody
Procedure: PP2A phosphatase assay. PP2Ac assays from whole cell lysates were carried out using the PP2Ac immunoprecipitation phosphatase assay kit (Millipore). Briefly, protein lysates (50 μg) in 100 μl of 20 mM Hepes. pH 7.0, 100 mM NaCl, 5 μg of PP2Ac antibody (Millipore), and 25 μl of Protein A-agarose were added to 400 μl of 50 mM Tris, pH 7.0, 100 mM CaCl2, and IPs were carried out at 4° C. for 2 h. IPs were used in the phosphatase reaction according to the manufacturer's protocol.

CD34+/CD38− CML cells = test: CFC/replating assay, CML cells; assay type: cell-based, human
Procedure: Long term culture-initiating cell (LTC-IC) and Colony-forming cell (CFC)/replating assays. 2×10^6 mononuclear CML cells were cultured with a 1:1 mixture of irradiated (80 Gy) IL-3/G-CSF-producing M2-10B4 and IL-3/KL-producing SI/SI murine fibroblasts in MyeloCult H5100 (StemCell Technologies) supplemented with hydrocortisone. Drugs were present during the first week of culture. Medium was replaced after 7 days, followed by weekly half-medium changes. After 6 weeks, adherent and floating cells were harvested and 5×10^4 cells plated into MethoCult H4435. LTC-IC-derived colonies were scored after 14 days. For CFC/replating, individual 14-day colonies from 10^3-10^5 CD34+/CD38− CML or 0.2×10^3-10^3 leukemic LSK cells plated in 0.9% H4435 or M3234 MethoCult, respectively, containing KL, G-CSF, GM-CSF, IL-3, IL-6, and Epo were replated and scored 2 weeks later.

JAK2 = test: Intracellular flow staining of active JAK2 (pJAK2); assay type: cell-based, human; conditions: CML CFSE^max/CD34^+ cells
Procedure: Flow cytontetric analysis and sorting of HSCs. Primary CD34^+ cells were isolated by magnetic cell sorting (CD34 MultiSort; Miltenyi Biotec) and kept in IMDM supplemented with 30% FBS, 2 mM Lglutamine, rhIL-3 (20 ng/ml), rhIL-6 (20 ng/ml), rhFlt-3 ligand (100 ng/ml), and rhKL (100 ng/ml) (Stem Cell Technologies). The CD34+ fraction derived from the BM of healthy donors and the PB or BM from CML patients was stained with anti-CD34 FITC or PE, and anti-CD38 PE-Cy7 (BD Biosciences). The Lin− fraction of murine mononuclear cells was stained with anti-Sca-1 PeCy7 (BD Biosciences) and anti-c-kit APC-AlexaFluor750 (eBioscience), The CD34^+/CD38^− or the Lin−/Sca-1+/c-Kit+ (LSK) fractions were sorted by fluorescence-activated cell sorting with a FACS Aria II instrument (BD Biosciences). […]

β-catenin = β-catenin immunofluorescence; assay type: cell-based, human
From the text: (§1) Immunofluorescence and proximity ligation assay. CD34^+/CD38^− cells from CML patient samples or LSK cells derived from induced leukemic mice were sorted, treated in liquid culture with the indicated drugs and cytospun onto glass slides. Slides were fixed in 3.7% formaldehyde, penneabilized with 0.05% Triton X-100, and stained with an Anti-®-catenin primary antibody (Cell signaling), a secondary goat F(ab′) anti-rabbit conjugated to Alexa Fluor 647, and the nuclear stain DAPI (Invitrogen); slides were mounted with Slowfade antifade reagent (Invitrogen). Microphotographs were obtained with a Zeiss LSM 510 confocal laser-scanning microscope with C-Apochromat 63/1.2 W objective. A minimum of three fields for each slide were acquired. For the Proximity Ligation Assay (PLA) CD34+/CD38− CML cells were treated, fixed, and permeabilized as described above. The slides were then simultaneously stained with a mix of mouse anti-PP2A (Millipore) and rabbit anti-SET (Globozyme) antibodies. The PLA procedure (Duolink; Olink Bioscience) was performed according to manufacturer instructions. An average of 20 z-stack ([…]) were captured with a Zeiss LSM 510 confocal laser-scanning microscope with C-Apochromat 63/1.2 W objective; at least three fields/slide were acquired. Three-dimensional projections were generated and positive signals/cell were calculated by ImageJ software (NIH).

[1] = system: β-catenin-driven (LEF/TCF) transcriptional activity; test: LEF/TCF reporter assay; assay type: cell-based, human; conditions: CD34^+/CD38^− CML and 32D-BCR/ABL cells
Procedure: LEF/TCF reporter assay. CD34+/CD38− CML cells were transduced with pBAR or pfuBAR (negative control) ®-catenin lentiviral reporter constructs (54), puromycin-selected and treated with the indicated drugs. Luciferase was measured using the Bright-Glo Luciferase system (Promega).

BCR-ABL1^+ cells = test: Intracellular phosphorylation of FTY720; assay type: cell-based
SET-PP2A interaction = target: T2, SET-PP2A interaction (Homo sapiens, UniProt Q01105); test: Proximity ligation assay, SET-PP2A association; assay type: cell-based; conditions: CD34^+/CD38^− CML cells, 24 h
T2 construct: untreated and FTY720-treated (24 h) CD34^+/CD38^− CML cells; endogenous in cells; host or cells: CD34+/CD38- CML patient cells
T2 sequence (Q01105 1-277 isoform Q01105-2): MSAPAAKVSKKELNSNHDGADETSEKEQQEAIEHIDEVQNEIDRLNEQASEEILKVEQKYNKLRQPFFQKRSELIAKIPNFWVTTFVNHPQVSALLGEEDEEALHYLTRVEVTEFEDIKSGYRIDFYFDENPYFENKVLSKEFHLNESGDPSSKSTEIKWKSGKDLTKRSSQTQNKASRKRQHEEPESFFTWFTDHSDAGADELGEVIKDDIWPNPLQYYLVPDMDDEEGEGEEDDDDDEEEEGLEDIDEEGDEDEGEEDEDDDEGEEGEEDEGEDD
From the text: as §1

T1 sequence (P67775 whole entry): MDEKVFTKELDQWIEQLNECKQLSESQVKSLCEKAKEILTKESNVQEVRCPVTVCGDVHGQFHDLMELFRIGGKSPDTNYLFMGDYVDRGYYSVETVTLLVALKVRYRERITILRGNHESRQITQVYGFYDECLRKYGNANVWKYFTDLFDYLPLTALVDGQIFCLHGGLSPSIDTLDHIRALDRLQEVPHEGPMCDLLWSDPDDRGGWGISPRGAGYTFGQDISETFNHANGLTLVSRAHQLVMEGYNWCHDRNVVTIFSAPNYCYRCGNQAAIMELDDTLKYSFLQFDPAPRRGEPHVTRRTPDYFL

CCCCCCCCc1ccc(CCC(N)(CO)CO)cc1 [FTY720]
PP2A activity in leukemic HSCs (PP2A): restored PP2A activity at levels superimposable to those observed in the identical cell fraction from healthy donors
reduction in replating efficiency (CD34+/CD38− CML cells): 70-90%
JAK2 activity (pJAK2) (JAK2): suppressed
β-catenin degradation (β-catenin; CD34^+/CD38^− CML, leukemic LSK, and 32D-BCR/ABL cells): induced β-catenin degradation
β-catenin expression (β-catenin; Ph^+ CD34^+/CD38^− cells): markedly decreased
β-catenin transcriptional activity (LEF/TCF luciferase) [1]: markedly impaired
intracellular FTY720 remaining unphosphorylated (BCR-ABL1^+ cells): more than 90%
SET-PP2A interaction (SET-PP2A interaction): disrupts the SET-PP2A interaction

Reference: patent publication US9220706B2, “Inhibition of leukemic stem cells by PP2A activating agents” (Ohio State Innovation Foundation, priority 2012, dated 2015)
